Results taken from US20220213440A1, “DENDRITIC CELL IMMUNOTHERAPY” (BAYLOR COLLEGE OF MEDICINE, priority 2015, published 2022).

Columns and labels:
[1] = test system: H2-DM^−/− DC; test: AIMp1 / sCTLA-4 secretion from H2-DM-/- DC loaded with class I peptide; format: cell-based, mouse
Excerpt: FIGS. 3A-G: AIMp1/sCTLA-4 modulation is dependent upon binding of homologous class I and II peptide to MHC. (A) sCTLA-4 (right) and AIMp1 (left) western blots of wild type (top) and H2-DM^−/− (bottom) murine DC culture supernatants following single, homologous, or heterologous loading with SV mRNA and lysate. Representative experiment shown. (B) Densitometry quantitation of AIMp1/sCTLA-4 ratios of the data depicted in (a) over three independent experiments. Top panel: wild type DC. Bottom panel: H2-DM^−/− DC. […] (Glycine Pair: Class I=SEQ ID NO: 3, Class II=SEQ ID NO: 2; Methionine Pair: Class I=SEQ ID NO: 8, Class II=SEQ ID NO: 9) (F) Densitometric quantitation of the data presented in (e). […]
Preparation of Vaccine Materials, Loading of DC, and In vitro CoCulture—Seminal vesicle (SV) and prostate were harvested from 10 week old male mice and immediately frozen at −80° C. […] To generate mRNA, total RNA was isolated from homogenized tissue using Trizol reagent (Life Technologies, Carlsbad, Calif.) according to the manufacturer's instructions, and mRNA was isolated from total RNA using an Oligotex mRNA Maxi Kit (Qiagen, Valencia, Calif.) also according to the manufacturer's instructions. mRNA was quantitated with a Nanodrop spectrophotometer (Thermo Scientific) and integrity was verified by gel electrophoresis. […]

[2] = test system: CD8^+ T-cells; test: In vitro co-culture of loaded mouse DC with splenocytes, T-cell populations; format: cell-based; conditions: loaded H2-DM^−/− DC with wild type syngeneic splenocytes
Excerpt: FIGS. 1A-F: Concurrent loading of antigenically related MHC Class I and II determinants promote TH1-polarization of mouse DC. […] This effect was abrogated by siRNA knockdown of AIMp1. Antigens were derived from the RAW264.7 cell line. Heterologous Class II antigens were derived from the 4T1 breast cancer cell line. Y-axis: fold change in IL-12p70 secretion from unloaded (UL) DC. […] Top panel: AIMp1 release following homologous loading with RAW264.7 antigenic determinants. Heterologous lysate derived from 4T1. Bottom panel: AIMp1 release following homologous loading with primary SV antigenic determinants. Heterologous lysate derived from primary prostate. […] Shown: sCTLA-4 release following homologous loading with RAW264.7 antigenic determinants. Heterologous lysate derived from 4T1. […] Data shown are indicative of typical AIMp1 knockdown of >70%. […] This effect was abrogated by treatment of homologously-loaded DC with AIMp1 siRNA. Heterologous lysate was primary prostate. […]
FIGS. 3A-G: AIMp1/sCTLA-4 modulation is dependent upon binding of homologous class I and II peptide to MHC. […] (B) Densitometry quantitation of AIMp1/sCTLA-4 ratios of the data depicted in (a) over three independent experiments. […] (Glycine Pair: Class I=SEQ ID NO: 3, Class II=SEQ ID NO: 2; Methionine Pair: Class I=SEQ ID NO: 8, Class II=SEQ ID NO: 9) (F) Densitometric quantitation of the data presented in (e). […]

[3] = test system: sCTLA-4 and AIMp1 secretion from human DC; test: sCTLA-4 and AIMp1 western blots of human DC culture supernatants with TLR agonistic stimuli; format: cell-based; conditions: 1 μg/ml, absence of antigenic loading
[4] = test system: AIMp1 and sCTLA-4 secretion from mouse DC; test: AIMp1 / sCTLA-4 Western blot of mouse DC culture supernatants; format: cell-based; conditions: mouse DC (not shown), 1 μg/ml, absence of antigenic loading
Excerpt: FIGS. 1A-F: Concurrent loading of antigenically related MHC Class I and II determinants promote TH1-polarization of mouse DC. […] This effect was abrogated by siRNA knockdown of AIMp1. Antigens were derived from the RAW264.7 cell line. Heterologous Class II antigens were derived from the 4T1 breast cancer cell line. Y-axis: fold change in IL-12p70 secretion from unloaded (UL) DC. […] Top panel: AIMp1 release following homologous loading with RAW264.7 antigenic determinants. Heterologous lysate derived from 4T1. Bottom panel: AIMp1 release following homologous loading with primary SV antigenic determinants. Heterologous lysate derived from primary prostate. […] Shown: sCTLA-4 release following homologous loading with RAW264.7 antigenic determinants. Heterologous lysate derived from 4T1. […] Data shown are indicative of typical AIMp1 knockdown of >70%. […] This effect was abrogated by treatment of homologously-loaded DC with AIMp1 siRNA. Heterologous lysate was primary prostate. Y-axis: fold change in total cell count in comparison to unloaded (UL) DC. […]
Quantitation of Western Blot Images—Western blot chemiluminescent signal was detected using a ChemiDoc XRS digital imaging system running Image Lab software Version 2.0.1 (Bio-Rad Laboratories, Hercules, Calif.). All Western blots were quantitated by densitometry of Ponceau S (Sigma-Aldrich) stained membranes. […]

Substance | AIMp1 release ([1]; SIINFEKL as control) | sCTLA-4 secretion ([1]; dose-dependent) | CD8^+CD25^+ T cells after coculture [2] | sCTLA-4 or AIMp1 secretion with TLR agonist [3] | sCTLA-4 or AIMp1 secretion with TLR agonist [4]
MRMATPLLM [H-2D^b CLIP] | Substantial AIMp1 release was observed in a dose-dependent fashion | diminution of sCTLA-4 secretion | increase in CD8^+CD25^+ T cells |  | 
flagellin |  |  |  | Neither poly(I:C), LPS, flagellin, nor CpG-ODN altered sCTLA-4 or AIMp1 secretion | Neither poly(I:C), LPS, flagellin, nor CpG-ODN altered sCTLA-4 or AIMp1 secretion
polyinosine-polycytidylic acid [poly(I:C)] |  |  |  | Neither poly(I:C), LPS, flagellin, nor CpG-ODN altered sCTLA-4 or AIMp1 secretion | Neither poly(I:C), LPS, flagellin, nor CpG-ODN altered sCTLA-4 or AIMp1 secretion
